Values of other authors in patent US20070287647A1, “Nail Polish Remover” (priority 2006, published 2007).

Details: in vapor

For `CC#N` [acetonitrile], the inhalation toxicity level is listed as “about 60 ppm”.
